Results: paper PMC9425435, “Antiviral Profiling of C-18- or C-19-Functionalized Semisynthetic Abietane Diterpenoids” (Journal of Natural Products, 2022)
Like-named read-outs stand apart in the source and are kept apart here. Marks after values point to notes of the source that are not given here.

Tests used:
ZIKV (Zika virus) [1] = assay: Plaque reduction assay (PFU), ZIKV in Vero E6; assay type: cell-based; details: ZIKV, Vero E6, PFU/well 150 ± 25
[2] = system: DENV-2 (Dengue virus type 2); assay: Plaque reduction assay (PFU), DENV-2 in BHK21; assay type: cell-based; details: for % inhibition (PFU): DENV-2, BHK21, PFU/well 150 ± 25
HHV-1, 29R strain = assay type: cell-based, human Alpha herpesvirus type 1
[3] = system: CHIKV (Chikungunya virus); assay: End-point titration technique (EPTT), viral titer reduction factor, CHIKV in Vero E6; assay type: cell-based; details: for Rf (reduction factor of the viral titer): Vero E6, 10TCID50, EPTT
Vero-E6 cells = assay: Cytotoxicity CC100 in Vero-E6 cells (72 h); details: for CC100 (100% cytotoxic concentration): Vero-E6 cells, 72h; for Cytostatic compounds (asterisk at the label): Table 1 footnote mark
BHK-21 cells = assay: Cytotoxicity CC100 in BHK-21 cells (6 days)
ZIKV (Zika virus) [4] = assay: End-point titration technique (EPTT), cytopathic effect inhibition, ZIKV in Vero E6; assay type: cell-based; details: Vero E6, 10TCID50, EPTT
[5] = system: DENV-2 (Dengue virus type 2); assay: End-point titration technique (EPTT), cytopathic effect inhibition, DENV-2 in Vero E6; assay type: cell-based; details: DENV-2, Vero E6, 10TCID50, EPTT

| Compound | % inhibition (PFU) (ZIKV (Zika virus) [1]) [%] | Rf (reduction factor of the viral titer) (HHV-1, 29R strain; Vero E6, 10TCID50, EPTT) | CC100 (100% cytotoxic concentration) (Vero-E6 cells) [µg/mL] | CC100 (100% cytotoxic concentration) (BHK-21 cells) [µg/mL] | also measured |
| --- | --- | --- | --- | --- | --- |
| CC(C)c1cc2c(cc1O)[C@@]1(C)CCCC(C)(C)[C@@H]1CC2 [Compound 5, (+)-ferruginol] | 38 ± 15 | not active | >50 | >50 | % inhibition (PFU) [2]: 28 ± 10%; Rf (reduction factor of the viral titer) [3]: 10^2 |
| COC(=O)[C@]1(C)CCC[C@]2(C)c3ccc(C(C)C)cc3CC[C@@H]12 [Compound 12, methyl dehydroabietate] | 25 ± 10 |  | >50 | 50 | inhibition ECytop (inhibitory cytopathic effect compared to the infection control) (ZIKV (Zika virus) [4]): + |
| CC(C)c1ccc2c(c1)CC[C@H]1C(C)(C(=O)O)CCC[C@]21C (some centres unmarked) [Compound 13] | 19 ± 12 |  | 50 | 50 | inhibition ECytop (inhibitory cytopathic effect compared to the infection control) [5]: +; Cytostatic compounds (asterisk at the label) (Vero-E6 cells): 13* |
| CC(C)c1ccc2c(c1)CC[C@H]1C(C)(CO)CCC[C@]21C (some centres unmarked) [Compound 14] | 37 ± 15 | not active | >50 | >50 | % inhibition (PFU) [2]: 30 ± 10%; Rf (reduction factor of the viral titer) [3]: 10^2 |
| COC(=O)[C@]1(C)CCC[C@]2(C)c3cc(C(C)=O)c(C(C)C)cc3CC[C@@H]12 [Compound 15a] |  |  | >50 | 25 |  |
| COC(=O)[C@@]1(C)CCC[C@]2(C)c3cc(C(C)=O)c(C(C)C)cc3CC[C@@H]12 [Compound 15b] | 29 ± 14 |  | >50 | 50 | % inhibition (PFU) [2]: 68 ± 20% |
| COC(=O)[C@]1(C)CCC[C@]2(C)c3cc(OC(C)=O)c(C(C)C)cc3CC[C@@H]12 [Compound 16a] | 22 ± 13 |  | 50 | 50 | inhibition ECytop (inhibitory cytopathic effect compared to the infection control) (ZIKV (Zika virus) [4]): +; Rf (reduction factor of the viral titer) [3]: 10^2 |
| COC(=O)[C@@]1(C)CCC[C@]2(C)c3cc(OC(C)=O)c(C(C)C)cc3CC[C@@H]12 [Compound 16b] | 29 ± 9 | not active | 25 | 25 | inhibition ECytop (inhibitory cytopathic effect compared to the infection control) (ZIKV (Zika virus) [4]): +; inhibition ECytop (inhibitory cytopathic effect compared to the infection control) [5]: + |
| COC(=O)[C@]1(C)CCC[C@]2(C)c3cc(OC(C)=O)c(C(C)C)cc3C(=O)C[C@@H]12 [Compound 17a] |  |  | 25 | 25 |  |
| COC(=O)[C@@]1(C)CCC[C@]2(C)c3cc(OC(C)=O)c(C(C)C)cc3C(=O)C[C@@H]12 [Compound 17b] |  | not active | 50 | 25 | inhibition ECytop (inhibitory cytopathic effect compared to the infection control) (ZIKV (Zika virus) [4]): + |
| COC(=O)[C@]1(C)CCC[C@]2(C)c3cc(O)c(C(C)C)cc3CC[C@@H]12 [Compound 18a] |  |  | 50 | 25 |  |
| COC(=O)[C@@]1(C)CCC[C@]2(C)c3cc(O)c(C(C)C)cc3CC[C@@H]12 [Compound 18b] | 48 ± 12 | not active | >50 | 50 | % inhibition (PFU) [2]: 51 ± 8%; Rf (reduction factor of the viral titer) [3]: 10^2 |
| CC(C)c1cc2c(cc1O)[C@@]1(C)CCC[C@@](C)(C(=O)O)[C@@H]1CC2 [Compound 19a, 12-hydroxydehydroabietic acid] |  |  | 25 | 12.5 |  |
| CC(C)c1cc2c(cc1O)[C@@]1(C)CCC[C@](C)(C(=O)O)[C@@H]1CC2 [Compound 19b, lambertic acid] | 27 ± 17 |  | >50 | >50 | inhibition ECytop (inhibitory cytopathic effect compared to the infection control) (ZIKV (Zika virus) [4]): +; % inhibition (PFU) [2]: 35 ± 10% |
| CC(C)c1cc2c(cc1O)[C@@]1(C)CCC[C@@](C)(CO)[C@@H]1CC2 [Compound 20a, 18-hydroxyferruginol] | 19 ± 11 |  | 50 | 50 | % inhibition (PFU) [2]: 25 ± 10%; Rf (reduction factor of the viral titer) [3]: 10^2; Cytostatic effect (Vero-E6 cells): cytostatic; Cytostatic compounds (asterisk at the label) (Vero-E6 cells): 20a* |
| CC(C)c1cc2c(cc1O)[C@@]1(C)CCC[C@](C)(CO)[C@@H]1CC2 [Compound 20b, 19-hydroxyferruginol] |  |  | 25 | 12.5 | inhibition ECytop (inhibitory cytopathic effect compared to the infection control) (ZIKV (Zika virus) [4]): +; Rf (reduction factor of the viral titer) [3]: 10^2 |
| CC(C)c1cc2c(cc1O)[C@@]1(C)CCC[C@@](C)(CO)[C@@H]1CC2=O [Compound 21a] | 27 ± 12 |  | 25 | 12.5 | inhibition ECytop (inhibitory cytopathic effect compared to the infection control) [5]: +; Rf (reduction factor of the viral titer) [3]: 10^2 |
| CC(C)c1cc2c(cc1O)[C@@]1(C)CCC[C@](C)(CO)[C@@H]1CC2=O [Compound 21b] |  |  | >25 | 25 |  |
| COC(=O)[C@]1(C)CCC[C@]2(C)c3cc(O)c(C(C)C)cc3C(=O)C[C@@H]12 [Compound 22a] |  |  | 50 | 25 |  |
| COC(=O)[C@@]1(C)CCC[C@]2(C)c3cc(O)c(C(C)C)cc3C(=O)C[C@@H]12 [Compound 22b] |  | not active | 25 | 12.5 | inhibition ECytop (inhibitory cytopathic effect compared to the infection control) [5]: + |
| CC(C)c1cc2c(cc1O)[C@@]1(C)CCC[C@@](C)(C(=O)O)[C@@H]1CC2=O [Compound 23a, liquiditerpenoic acid A] |  |  | >50 | 50 |  |
| CC(C)c1cc2c(cc1O)[C@@]1(C)CCC[C@](C)(C(=O)O)[C@@H]1CC2=O [Compound 23b] |  | not active | 25 | 12.5 |  |
| COC(=O)[C@]1(C)CCC[C@]2(C)c3ccc(C(C)C)c(O)c3CC[C@@H]12 [Compound 24, methyl 14-hydroxy-dehydroabietate] | 51 ± 15 |  | >25 | >25 | % inhibition (PFU) [2]: 48 ± 9%; Most active concentration, in μM ([2]; DENV-2 PFU assay, conversion of 3.1 μg/mL): ca. 9.3 μM; Rf (reduction factor of the viral titer) [3]: 10^2 |
| CC(C)c1ccc2c(c1O)CC[C@H]1[C@](C)(C(=O)O)CCC[C@]21C [Compound 25] | 20 ± 09 | not active | >25 | >25 |  |
| CC(C)c1ccc2c(c1O)CC[C@H]1[C@](C)(CO)CCC[C@]21C [Compound 26] |  | not active | >25 | >25 | inhibition ECytop (inhibitory cytopathic effect compared to the infection control) (ZIKV (Zika virus) [4]): + |
| dextran sulfate [DS, reference compound] |  |  | >50 |  | Nontoxic concentration that showed higher viral reduction factor (HHV-1, 29R strain; Vero E6, 10TCID50, EPTT): 5 µg/mL |
| heparin [reference compound] |  |  |  |  | Nontoxic concentration that showed higher viral reduction factor (HHV-1, 29R strain; Vero E6, EPTT, heparin): 10 U.I.; Nontoxic concentration that showed higher viral reduction factor ([3]; Vero E6, EPTT, heparin): 10 U.I.; CC100 (100% cytotoxic concentration) (Vero-E6 cells; heparin): >100 U.I |
